From patent publication US4259235A, “Tricyclic nitrogenous compounds having string plant growth regulating properties” (BASF Aktiengesellschaft, priority 1977, dated 1981)
Read-outs that look alike come from different tables or passages of the source.

Assays:
[1] = test system: Lolium mult.; experiment: Herbicidal action, pre- and postemergence application in the greenhouse; assay type: in vivo; conditions: for pest or weed control at 3000 g/ha: Lolium, post-emergence, read-out: % damage
Method: (§1) Plastic flowerpots having a volume of 300 cm^3 were filled with a sandy loam and the test plants placed therein (either as seed, as vegetatively reproduced species, or as potted plants, e.g., vines). For preemergence treatment, the active ingredients were suspended or emulsified in water as vehicle and sprayed onto the surface of the soil immediately after sowing by means of finely distributing nozzles. The potted vines were treated by spraying them with the correspondingly diluted liquor. For postemergence treatment, the agents were, as stated above, sprayed in water onto the leaves of the test plants, some liquor also falling onto the soil. In some special cases, solid active ingredients were first dissolved in dimethylformamide and then applied in a total liquor amount of 400 liters of water per hectare. For the postemergence treatment, the plants were first grown to a height of from 3 to 10 cm before being treated. With grasses, the first growth was cut, and the new growth treated 2 to 3 days after cutting. The temperature requirements of the plants were taken into account by placing them in cooler or warmer sections of the greenhouse. The experiments were run for from 4 to 6 weeks, during which time the plants were tended and their reaction to the various treatments was assessed.
(§2) The application rates are given in kg/ha of active ingredient, regardless of the method of application and the amount of water used.
(§3) A 0 to 100 scale was used for the evaluation, 0 denoting normal emergence or no damage (or no inhibition), and 100 denoting non-emergence or complete destruction of the plants. A distinction should be made in the influence on growth between desired changes without any appreciable disadvantageous phytotoxic effects (e.g., purely growth-regulating effects) and those of a phytotoxic herbicical character.

[2] = test system: Cynodon dact. (seed); experiment: as above; assay type: in vivo, Cynodon dactylon
Method: as §1, §2, §3

[3] = test system: Euph. gen.; experiment: as above; assay type: in vivo, Euphorbia geniculata
Method: as §1, §2, §3

[4] = test system: Sinapis alba; experiment: as above; assay type: in vivo; conditions: post-emergence, read-out: % damage
Method: as §1, §2, §3

[5] = test system: Poa pratensis; experiment: Growth inhibition in lawns, preemergence treatment in the greenhouse; assay type: in vivo; conditions: Poa pratensis, pre-emergence, read-out: % growth inhibition after emergence
Method: as §1, §2, §3

[6] = test system: Tritic. aestiv.; experiment: Shoot inhibition, pre- and postemergence treatment (table 28); assay type: in vivo; conditions: post-emergence
Method: as §1, §2, §3

[7] = test system: Glycine max; experiment: as above; assay type: in vivo; conditions: post-emergence, read-out: % shoot inhibition
Method: as §1, §2, §3

[8] = test system: Poa prat.; experiment: as above; assay type: in vivo; conditions: Poa pratensis, post-emergence, read-out: % shoot inhibition
Method: as §1, §2, §3

[9] = test system: Euphorbia geniculata; experiment: Shoot growth, postemergence treatment in the greenhouse (table 26); assay type: in vivo
Method: as §1, §2, §3

[10] = test system: Cynodon dactylon; experiment: as above; assay type: in vivo; conditions: from seed
Method: as §1, §2, §3

[11] = test system: Hordeum vulgare; experiment: as above; assay type: in vivo
Method: as §1, §2, §3

[12] = test system: Poa pratensis; experiment: as above; assay type: in vivo
Method: as §1, §2, §3

[13] = test system: Arachys hypog.; experiment: Shoot inhibition, pre- and postemergence treatment (table 28); assay type: in vivo, Arachys hypogaea; conditions: post-emergence, read-out: % shoot inhibition
Method: as §1, §2, §3

[14] = test system: Hordeum vulg.; experiment: as above; assay type: in vivo, Hordeum vulgare; conditions: post-emergence
Method: as §1, §2, §3

[15] = test system: Euphorbia geniculata; experiment: Inhibition of shoot growth by growth regulators, pre- and postemergence (table 27); assay type: in vivo; conditions: Euphorbia heterophylla, post-emergence, read-out: shoot growth inhibition (%)
Method: as §1, §2, §3

[16] = test system: Medicago sativa; experiment: as above; assay type: in vivo; conditions: post-emergence, read-out: shoot growth inhibition (%)
Method: as §1, §2, §3

[17] = test system: Cynodon dactyl.; experiment: Shoot inhibition, pre- and postemergence treatment (table 28); assay type: in vivo, Cynodon dactylon; conditions: post-emergence, read-out: % shoot inhibition
Method: as §1, §2, §3

[18] = test system: Euphorbia genic.; experiment: as above; assay type: in vivo, Euphorbia geniculata; conditions: post-emergence, read-out: % shoot inhibition
Method: as §1, §2, §3

[19] = test system: Echin. c.g.; experiment: Removal and inhibition of unwanted plants, preemergence, greenhouse; assay type: in vivo, Echinochloa crus galli
Method: as §1, §2, §3

[20] = test system: Setar. spp.; experiment: as above; assay type: in vivo
Method: as §1, §2, §3

[21] = test system: Lam. spp.; experiment: as above; assay type: in vivo
Method: as §1, §2, §3

[22] = test system: Cyper. esc.; experiment: as above; assay type: in vivo, Cyperus esculentus
Method: as §1, §2, §3

[23] = test system: Solan. nig.; experiment: as above; assay type: in vivo, Solanum nigrum
Method: as §1, §2, §3

[24] = test system: Viola tric.; experiment: Herbicidal action, pre- and postemergence application in the greenhouse; assay type: in vivo; conditions: 3.0 kg/ha POST
Method: as §1, §2, §3

[25] = test system: Mentha piper.; experiment: as above; assay type: in vivo; conditions: post-emergence; 3.0 kg/ha POST; read-out: % damage
Method: as §1, §2, §3

[26] = test system: Ipom. spp.; experiment: as above; assay type: in vivo, Ipomoea spp.; conditions: Ipomoea, post-emergence; 3.0 kg/ha POST; read-out: % damage
Method: as §1, §2, §3

[27] = read-out: % shoot inhibition, 1.0 kg/ha POST
[28] = read-out: % shoot inhibition, 1.0 kg/ha PRE
[29] = read-out: % shoot inhibition, 2.0 kg/ha POST
[30] = read-out: % shoot inhibition, 2.0 kg/ha PRE

ClC1C(Cl)C2CC1C1N=NC21 (stereo not shown)
% damage ([1]; 3.0 kg/ha POST): 100%
pest or weed control at 3000 g/ha [1]: 100%
% damage ([2]; 1.0 kg/ha PRE): 90%
% damage ([2]; 2.0 kg/ha POST): 100%
% damage ([3]; 1.0 kg/ha PRE): 70%
% damage ([3]; 2.0 kg/ha POST): 95%

BrC1C(Br)C2CC1C1N=NC21 (stereo not shown) [drawing 442]
pest or weed control at 3000 g/ha ([1]; 3.0 kg/ha POST): 100%
pest or weed control at 3000 g/ha ([1]; 3.0 kg/ha PRE): 40%
pest or weed control at 3000 g/ha ([4]; 3.0 kg/ha POST): 100%
pest or weed control at 3000 g/ha ([4]; 3.0 kg/ha PRE): 70%
% damage ([2]; 1.0 kg/ha PRE): 100%
% damage ([3]; 1.0 kg/ha PRE): 90%

C[N+](C)(C)CCCl [[ClCH2CH2N(C⊕H3)3]⊖ Cl, reference compound]
inhibition at 500 g/ha ([5]; 0.5 kg/ha): 0%
inhibition at 1000 g/ha ([5]; 1.0 kg/ha): 10%
inhibition at 2000 g/ha ([5]; 2.0 kg/ha): 10%
inhibition at 4000 g/ha ([5]; 4.0 kg/ha): 10%
inhibition at 1000 g/ha [6, 27]: 30%
inhibition at 1000 g/ha [6, 28]: 20%
inhibition at 2000 g/ha [6, 29]: 30%
inhibition at 2000 g/ha [6, 30]: 20%
inhibition at 1000 g/ha [7]: 0%
inhibition at 2000 g/ha [7]: 0%
inhibition at 1000 g/ha [8]: 0%
inhibition at 2000 g/ha [8]: 0%
Shoot length ([9]; 0.5 kg/ha): 12.5 cm
Shoot length ([9]; 1.0 kg/ha): 13 cm
Shoot length ([9]; 2.0 kg/ha): 13 cm
Shoot length ([10]; 1.0 kg/ha): 7 cm
Shoot length ([10]; 2.0 kg/ha): 7 cm
Shoot length ([11]; 0.5 kg/ha): 14 cm
Shoot length ([11]; 1.0 kg/ha): 14 cm
Shoot length ([11]; 2.0 kg/ha): 14 cm
Shoot length ([12]; 1.0 kg/ha): 20 cm
Shoot length ([12]; 2.0 kg/ha): 19 cm
inhibition at 1000 g/ha [13]: 0%
inhibition at 2000 g/ha [13]: 0%
inhibition at 1000 g/ha [14, 27]: 10%
inhibition at 1000 g/ha [14, 28]: 20%
inhibition at 2000 g/ha [14, 29]: 10%
inhibition at 2000 g/ha [14, 30]: 20%
inhibition at 500 g/ha [15]: 0%
inhibition at 1000 g/ha [15]: 0%
inhibition at 2000 g/ha [15]: 0%
inhibition at 4000 g/ha [15]: 10%
inhibition at 500 g/ha [16]: 0%
inhibition at 1000 g/ha [16]: 0%
inhibition at 2000 g/ha [16]: 0%
inhibition at 4000 g/ha [16]: 0%
inhibition at 1000 g/ha [17]: 0%
inhibition at 2000 g/ha [17]: 0%
inhibition at 1000 g/ha [18]: 0%
inhibition at 2000 g/ha [18]: 0%

BrC1C(Br)C2CC1C1N=NC21 (stereo not shown) [drawing 430]
% damage ([19]; 2.0 kg/ha PRE): 50%
% damage ([19]; 4.0 kg/ha PRE): 80%
% damage ([19]; 8.0 kg/ha PRE): 90%
% damage ([20]; 2.0 kg/ha PRE): 100%
% damage ([20]; 4.0 kg/ha PRE): 100%
% damage ([20]; 8.0 kg/ha PRE): 100%
% damage ([21]; 2.0 kg/ha PRE): 95%
% damage ([21]; 4.0 kg/ha PRE): 95%
% damage ([21]; 8.0 kg/ha PRE): 95%
% damage ([22]; 2.0 kg/ha PRE): 20%
% damage ([22]; 4.0 kg/ha PRE): 55%
% damage ([22]; 8.0 kg/ha PRE): 70%
% damage ([23]; 2.0 kg/ha PRE): 95%
% damage ([23]; 4.0 kg/ha PRE): 95%
% damage ([23]; 8.0 kg/ha PRE): 95%

OC1C(O)C2CC1C1N=NC21 (stereo not shown)
% damage [24]: 95%
pest or weed control at 3000 g/ha [25]: 100%
pest or weed control at 3000 g/ha ([1]; 3.0 kg/ha POST): 95%
pest or weed control at 3000 g/ha ([1]; 3.0 kg/ha PRE): 90%
pest or weed control at 3000 g/ha ([4]; 3.0 kg/ha PRE): 80%
pest or weed control at 3000 g/ha [26]: 100%
